The values below come from ChEMBL document CHEMBL6087475, “Current and Emerging Approaches Targeting G9a for the Treatment of Various Diseases” (J Med Chem, 2025).

Data set [1] addresses von Hippel-Lindau disease tumor suppressor/Histone-lysine N-methyltransferase EHMT2 (Homo sapiens, UniProt Q96KQ7+P40337). The data set can be described thus: PROTAC activity at G9a/VHL in human 22Rv1 cells assessed as induction of G9a degradation at 1 uM incubated for 24 hrs by Western blot analysis. The data set is classed as cell-based. In general terms: Immunoblotting shows a protein as a band on a membrane.

Data set [2] deals with von Hippel-Lindau disease tumor suppressor/Histone-lysine N-methyltransferase EHMT1 (Homo sapiens, UniProt Q9H9B1+P40337). The data set can be described thus: PROTAC activity at GLP/VHL in human 22Rv1 cells assessed as induction of GLP degradation at 1 uM incubated for 24 hrs by Western blot analysis. The data set is classed as cell-based.
The next data set has as its system PANC-1. The data set can be described thus: Antiproliferative activity against human PANC-1 cells assessed as reduction in cell growth incubated for 24 hrs by MTT assay. Format: functional, cell-based. The conditions noted are these: PANC-1, 24 h.
Data set [3] concerns the target DNA (cytosine-5)-methyltransferase 1 (Homo sapiens, UniProt P26358). The data set can be described thus: Inhibition of DNMT1 (unknown origin).
A further data set has as its system K562. Briefly: Antiproliferative activity against human K562 cells assessed as reduction in cell growth measured after 72 hrs by MTT assay. The data set is classed as functional, cell-based. The conditions noted are these: K562, 72 h. For orientation: Tetrazolium assays rely on reduction of a dye to a coloured formazan, in cell work by metabolically active cells.

The target in data set [4] is T1, Histone-lysine N-methyltransferase EHMT2 (Homo sapiens, UniProt Q96KQ7).
T1 sequence (Q96KQ7 whole entry): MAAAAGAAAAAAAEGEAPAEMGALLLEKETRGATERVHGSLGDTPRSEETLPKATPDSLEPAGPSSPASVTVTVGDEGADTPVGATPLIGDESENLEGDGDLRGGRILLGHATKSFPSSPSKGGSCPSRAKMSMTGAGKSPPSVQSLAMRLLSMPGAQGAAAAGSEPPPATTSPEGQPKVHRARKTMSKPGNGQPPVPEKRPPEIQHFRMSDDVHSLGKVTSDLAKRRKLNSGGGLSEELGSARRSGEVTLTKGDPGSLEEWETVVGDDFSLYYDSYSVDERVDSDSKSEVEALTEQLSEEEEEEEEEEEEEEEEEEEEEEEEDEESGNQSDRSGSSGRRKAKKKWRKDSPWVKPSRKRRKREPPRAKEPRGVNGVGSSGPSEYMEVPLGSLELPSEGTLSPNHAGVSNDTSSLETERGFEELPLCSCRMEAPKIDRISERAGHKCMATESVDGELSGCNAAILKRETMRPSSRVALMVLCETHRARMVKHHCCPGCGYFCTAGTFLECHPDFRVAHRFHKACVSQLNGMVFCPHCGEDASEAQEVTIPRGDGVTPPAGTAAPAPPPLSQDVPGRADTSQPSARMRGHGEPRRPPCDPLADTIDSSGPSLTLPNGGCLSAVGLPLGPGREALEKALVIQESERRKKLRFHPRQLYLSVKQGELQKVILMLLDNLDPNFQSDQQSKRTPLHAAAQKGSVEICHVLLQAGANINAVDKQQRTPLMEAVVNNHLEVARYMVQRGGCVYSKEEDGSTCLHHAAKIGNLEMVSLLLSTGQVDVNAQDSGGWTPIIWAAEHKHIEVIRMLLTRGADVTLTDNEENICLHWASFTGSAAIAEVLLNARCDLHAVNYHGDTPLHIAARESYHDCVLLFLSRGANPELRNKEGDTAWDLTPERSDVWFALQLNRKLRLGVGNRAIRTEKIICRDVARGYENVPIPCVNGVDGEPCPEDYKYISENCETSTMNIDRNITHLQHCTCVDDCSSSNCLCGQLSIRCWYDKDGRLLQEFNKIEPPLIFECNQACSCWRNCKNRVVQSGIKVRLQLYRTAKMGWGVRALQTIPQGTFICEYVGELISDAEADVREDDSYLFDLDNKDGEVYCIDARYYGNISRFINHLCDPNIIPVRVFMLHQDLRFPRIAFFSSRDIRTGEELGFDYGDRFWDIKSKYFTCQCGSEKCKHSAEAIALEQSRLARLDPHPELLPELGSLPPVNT
Briefly: Inhibition of G9a (unknown origin).

Data set [5] can be described thus: Cmax in mouse at 25 mg/kg, ip. As to conditions: in vivo. Format: ADME, organism-based.
The subject of the next data set is A549. The data set can be described thus: Antiproliferative activity against human A549 cells assessed as reduction in cell viability measured after 72 hrs by MTT assay. Format: functional, cell-based. The conditions noted are these: A549, 72 h.
For the next data set, the system named is MCF7. The data set can be described thus: Antiproliferative activity against human MCF7 cells assessed as reduction in cell growth measured after 72 hrs by MTT assay. Format: functional, cell-based. As to conditions: MCF7, 72 h.
Data set [6] deals with T2, Histone-lysine N-methyltransferase EHMT1/EHMT2 (Homo sapiens, UniProt Q9H9B1+Q96KQ7).
T2 sequence (Q9H9B1 whole entry): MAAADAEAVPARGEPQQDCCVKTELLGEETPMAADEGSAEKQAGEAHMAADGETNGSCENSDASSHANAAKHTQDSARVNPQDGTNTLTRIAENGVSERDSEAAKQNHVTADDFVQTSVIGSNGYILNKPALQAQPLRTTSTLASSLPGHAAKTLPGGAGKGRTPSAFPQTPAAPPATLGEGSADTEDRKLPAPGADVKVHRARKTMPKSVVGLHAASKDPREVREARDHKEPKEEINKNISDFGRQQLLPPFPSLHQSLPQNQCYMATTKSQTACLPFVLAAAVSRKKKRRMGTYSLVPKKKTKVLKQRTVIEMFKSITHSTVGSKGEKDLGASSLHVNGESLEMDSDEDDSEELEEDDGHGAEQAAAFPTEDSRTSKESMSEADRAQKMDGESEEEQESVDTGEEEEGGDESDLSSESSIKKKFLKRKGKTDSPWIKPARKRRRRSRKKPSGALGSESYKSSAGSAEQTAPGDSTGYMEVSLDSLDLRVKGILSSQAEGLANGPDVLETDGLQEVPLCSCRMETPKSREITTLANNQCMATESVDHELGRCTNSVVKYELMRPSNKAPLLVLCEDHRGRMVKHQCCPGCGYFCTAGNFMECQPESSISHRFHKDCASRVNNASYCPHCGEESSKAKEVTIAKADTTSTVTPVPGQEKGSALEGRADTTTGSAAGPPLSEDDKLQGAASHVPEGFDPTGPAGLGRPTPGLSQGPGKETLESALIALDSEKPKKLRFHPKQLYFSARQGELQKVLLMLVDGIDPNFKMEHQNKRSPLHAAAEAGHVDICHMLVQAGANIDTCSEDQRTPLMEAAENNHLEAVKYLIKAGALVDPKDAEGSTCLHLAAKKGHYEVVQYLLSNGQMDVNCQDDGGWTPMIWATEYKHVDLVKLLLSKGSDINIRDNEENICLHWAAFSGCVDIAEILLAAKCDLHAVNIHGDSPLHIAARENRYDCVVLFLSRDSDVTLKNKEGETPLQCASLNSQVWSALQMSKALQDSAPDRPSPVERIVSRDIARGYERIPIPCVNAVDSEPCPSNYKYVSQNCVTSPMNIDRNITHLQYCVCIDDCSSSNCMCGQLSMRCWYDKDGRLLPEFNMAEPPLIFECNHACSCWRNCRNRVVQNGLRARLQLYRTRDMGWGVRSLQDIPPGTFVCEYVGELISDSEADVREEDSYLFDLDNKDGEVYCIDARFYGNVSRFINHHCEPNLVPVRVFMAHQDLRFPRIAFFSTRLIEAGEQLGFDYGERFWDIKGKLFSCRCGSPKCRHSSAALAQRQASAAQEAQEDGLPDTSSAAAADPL
T2 sequence (Q96KQ7 whole entry): T1 sequence (Q96KQ7 whole entry)
Briefly: Inhibition of G9a/GLP in human MDA-MB-231 cells assessed as reduction in H3K9 dimethylation incubated for 3 days by Western blotting analysis. Format: cell-based.

DNA (cytosine-5)-methyltransferase 1, sequence (P26358 whole entry): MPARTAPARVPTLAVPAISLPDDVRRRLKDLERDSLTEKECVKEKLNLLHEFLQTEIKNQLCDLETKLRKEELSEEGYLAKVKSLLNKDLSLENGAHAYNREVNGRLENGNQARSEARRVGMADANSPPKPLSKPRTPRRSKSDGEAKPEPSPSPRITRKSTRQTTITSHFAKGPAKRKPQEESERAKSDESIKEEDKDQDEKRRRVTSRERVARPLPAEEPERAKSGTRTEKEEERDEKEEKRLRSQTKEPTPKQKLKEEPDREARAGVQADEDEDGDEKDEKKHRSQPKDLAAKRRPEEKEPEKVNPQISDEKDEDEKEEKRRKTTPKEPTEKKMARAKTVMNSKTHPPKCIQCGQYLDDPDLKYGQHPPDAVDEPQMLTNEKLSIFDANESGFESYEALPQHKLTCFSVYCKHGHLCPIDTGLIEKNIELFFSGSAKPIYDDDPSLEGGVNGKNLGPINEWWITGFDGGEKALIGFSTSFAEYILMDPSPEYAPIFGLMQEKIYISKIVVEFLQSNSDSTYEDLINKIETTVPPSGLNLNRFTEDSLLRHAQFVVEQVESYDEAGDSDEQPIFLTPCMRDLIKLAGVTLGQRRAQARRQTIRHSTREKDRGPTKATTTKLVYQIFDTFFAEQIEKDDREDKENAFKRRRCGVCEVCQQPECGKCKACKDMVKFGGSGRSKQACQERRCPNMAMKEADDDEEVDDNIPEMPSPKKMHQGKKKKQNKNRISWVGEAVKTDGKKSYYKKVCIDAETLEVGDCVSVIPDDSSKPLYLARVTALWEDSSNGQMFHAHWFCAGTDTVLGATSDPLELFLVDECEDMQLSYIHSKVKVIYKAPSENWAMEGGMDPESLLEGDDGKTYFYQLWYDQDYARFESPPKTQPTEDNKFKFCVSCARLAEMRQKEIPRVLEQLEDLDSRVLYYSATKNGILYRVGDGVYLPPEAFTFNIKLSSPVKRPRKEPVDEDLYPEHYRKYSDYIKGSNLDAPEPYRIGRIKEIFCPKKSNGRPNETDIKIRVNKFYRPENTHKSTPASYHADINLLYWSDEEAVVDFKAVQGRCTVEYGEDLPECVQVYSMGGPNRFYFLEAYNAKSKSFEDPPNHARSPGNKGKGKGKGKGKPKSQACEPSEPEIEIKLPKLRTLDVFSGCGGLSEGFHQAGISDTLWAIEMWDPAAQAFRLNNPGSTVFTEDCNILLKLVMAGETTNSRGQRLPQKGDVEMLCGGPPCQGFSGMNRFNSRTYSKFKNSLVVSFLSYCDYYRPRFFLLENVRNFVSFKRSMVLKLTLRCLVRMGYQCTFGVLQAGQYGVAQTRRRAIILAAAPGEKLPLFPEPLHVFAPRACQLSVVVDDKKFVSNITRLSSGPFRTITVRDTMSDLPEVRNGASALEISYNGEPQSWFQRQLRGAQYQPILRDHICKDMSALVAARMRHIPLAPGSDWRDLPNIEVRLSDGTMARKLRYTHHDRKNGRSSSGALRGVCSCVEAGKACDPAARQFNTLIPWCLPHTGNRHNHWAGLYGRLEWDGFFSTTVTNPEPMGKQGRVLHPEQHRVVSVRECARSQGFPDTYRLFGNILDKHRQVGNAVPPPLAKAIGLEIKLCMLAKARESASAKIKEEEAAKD
von Hippel-Lindau disease tumor suppressor/Histone-lysine N-methyltransferase EHMT2, sequence (P40337 whole entry, one chain of several): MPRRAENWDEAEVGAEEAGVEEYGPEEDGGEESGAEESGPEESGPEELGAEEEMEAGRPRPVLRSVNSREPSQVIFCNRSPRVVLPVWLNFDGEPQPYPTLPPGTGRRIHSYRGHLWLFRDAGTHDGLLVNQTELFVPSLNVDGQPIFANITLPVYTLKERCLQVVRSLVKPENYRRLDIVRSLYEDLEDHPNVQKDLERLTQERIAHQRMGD
von Hippel-Lindau disease tumor suppressor/Histone-lysine N-methyltransferase EHMT1, sequence (P40337 whole entry, one chain of several): as above

As to `COc1cc2c(NC3CCN(CCCC(=O)NCCCCCCCCNc4cccc5c4C(=O)N(C4CCC(=O)NC4=O)C5=O)CC3)nc(C3CCCCC3)nc2cc1OCCCN1CCCC1` (configuration not stated), the DC50 (commonly the midpoint of the concentration-degradation curve) in [1] is 0.1 µM; in data set [2], over 10 µM.

Regarding `COC(=O)c1ccc2c(c1)nc(NC(=O)c1ccccc1)n2CCCc1ccccc1`, the EC50 – broadly, the concentration needed to bring the measured effect to its halfway point – with PANC-1 is 5 µM.

For the compound `CN(C)C(=O)Nc1ccc(CN2CCC(C(O)(c3ccc(C(F)(F)F)cc3)c3ccc(C(F)(F)F)cc3)CC2)cc1`, the figures for the IC50 (in [3]; with K562) were 6.5 µM and 1.7 µM, respectively.

With `CCN1C[C@H](NC(=O)c2cc3cc(Cl)ccc3[nH]2)[C@@H](OC)C1`, the IC50 (as a rule, the concentration needed to halve the response being measured) in data set [3] stood at 0.0018 µM.

Compound `CCN(c1cc(-c2ccc(CN3CCOCC3)cc2)cc(C(=O)NCc2c(C)cc(C)[nH]c2=O)c1C)C1CCOCC1` [TAZEMETOSTAT] showed an IC50 in data set [4] of 0.0029 µM.

`COc1cc2c(cc1OC)-c1c(C)c3cc(OC)c(OC)cc3c[n+]1CC2` showed an IC50 in [3] of 16.3 µM.

`Cc1ccc(SS(=O)(=O)c2ccc(C)cc2)cc1` had an IC50 in data set [3] of 3.06 µM.

Turning to `COc1cc2nc(N3CCOCC3)nc(NC3CCN(C)CC3)c2cc1OC`, the IC50 in data set [4] was 0.013 µM.

Consider `Cc1c(C(=O)N[C@@H](CCC2CC2)C(=O)Nc2ccc(C#N)cc2)[nH]c2c1C(=O)CC(C)(C)C2`, for which the peak level in data set [5] (Cmax) was 42.4 µM. Also, in [3], the midpoint of inhibition, the IC50, lay at 0.027 µM.

`CCOc1ccc(Nc2cc(C)nc3ccc(Cl)cc23)cc1` came in with an IC50 in data set [4] of 0.067 µM.

In [4], `COc1cc2c(C3CCOCC3)nc(N)nc2cc1OCCCN1CCCC1` displayed a concentration for half-maximal inhibition (IC50) of 0.126 µM.

As to `COc1ccc2c(NC3CCN(Cc4ccccc4)CC3)nc(NCCNC(=O)CCCCC(=O)NO)nc2c1`, the EC50 turned out to be 36.2 µM in the data set with A549 and 37.4 µM with MCF7. For the same compound, the IC50 in data set [6] stood at 7.136 µM.
